Experimental data: article PMC9099123 (Clinical and Translational Science, 2022)
Values joined by “and” are separate entries in the source; they are usually repeats but may differ in a detail not shown here. Equal values may be shown once. Each block holds one compound with its values, some of them ahead of it.

How the values were obtained:
[1] = Plasma PK of digoxin and rosuvastatin; conditions: for AUC(0-inf) / AUC(0-t) / Cmax / Vd/F / half-life: male, human, in vivo; for AUC(0-inf): AUCinf; for AUC(0-t): AUClast; for Vd/F: Vz/F; for half-life: t½
P-gp [2] = assay: Effect of enzalutamide on PK of digoxin; type: in vivo, human
[3] = Urine PK of digoxin in men with mCRPC; type: in vivo, human; conditions: for CL renal: male, human, oral, CLR; for CL renal / Aelast%, GLSM / Aelast%, Mean ± SD / Aelast%, Median (range) / Aelast, Median (range): urine; for Aelast, Mean ± SD: urine up to 24 h
Safety and tolerability = type: in vivo, human; conditions: for TEAEs considered related to the drug: single dose in cocktail, days 1 and 64
clinical = conditions: male, human, plasma
CYP2C9 = conditions: previous clinical DDI studies, cited from earlier work
[4] = Plasma PK of enzalutamide and N-desmethyl enzalutamide in men with mCRPC
BCRP [5] = assay: Effect of enzalutamide on PK of rosuvastatin; type: in vivo, human
CYP2C19 = conditions: previous clinical DDI studies, cited from earlier work
CYP3A4 [6] = conditions: previous clinical DDI studies, cited from earlier work
CYP3A4 [7] = conditions: human hepatocytes; ref data on file; cited from earlier work
P-gp [8] = conditions: co-administration with rifampin; cited from earlier work
BCRP [9] = conditions: co-administered with rifampin; cited from earlier work
[10] = GLSM, plasma, Enzalutamide + cocktail (day 64)
[11] = Mean ± SD, plasma, Cocktail (day 1)
[12] = Median (range), plasma, Cocktail (day 1)
[13] = Mean ± SD, plasma, Enzalutamide + cocktail (day 64)
[14] = Median (range), plasma, Enzalutamide + cocktail (day 64)
[15] = plasma, Enzalutamide + cocktail (day 64)
[16] = digoxin co-administered with enzalutamide versus taken alone
[17] = digoxin plasma, day 64 vs day 1
[18] = Enzalutamide + cocktail (day 64)
[19] = following enzalutamide, 2 patients
[20] = rosuvastatin co-administered with enzalutamide versus taken alone
[21] = rosuvastatin plasma, day 64 vs day 1

digoxin plasma concentrations, all patients ([1]; cocktail day 1, 0.5–168 h postdose, above LLOQ): > 10 pg/mL
AUC(0-inf) ([1]; GLSM, plasma, Cocktail (day 1)): 24.1 ng·h/mL
AUC(0-inf) [1, 10]: 32.1 ng·h/mL
AUC(0-inf) [1, 11]: 24.6 ng·h/mL
AUC(0-inf) [1, 12]: 25.1 ng·h/mL
AUC(0-t) ([1]; GLSM, plasma, Cocktail (day 1)): 21.7 ng·h/mL
AUC(0-t) [1, 10]: 28 ng·h/mL
AUC(0-t) [1, 11]: 22.1 ng·h/mL
AUC(0-t) [1, 13]: 28.7 ng·h/mL
AUC(0-t) [1, 12]: 22.7 ng·h/mL
AUC(0-t) [1, 14]: 27.1 ng·h/mL
Cmax [1, 12]: 1.47 ng/mL
Cmax [1, 14]: 1.62 ng/mL
Vd/F [1, 11]: 785 ± 138 L
Vd/F [1, 13]: 710 ± 114 L
Vd/F [1, 12]: 786 L
Vd/F [1, 14]: 727 L
half-life [1, 11]: 52.3 ± 8.2 h
half-life [1, 13]: 63.5 ± 9.5 h
half-life [1, 12]: 50.5 h
CL/F, Mean ± SD ([1]; plasma, Cocktail (day 1)): 10.6 ± 2.3 L/h
CL/F, Median (range) ([1]; plasma, Cocktail (day 1)): 9.9 (7.4–16.3) L/h
tmax, Median (range) ([1]; plasma, Cocktail (day 1)): 1.50 (0.50–3.00) h
CL/F, Mean ± SD [1, 15]: 7.9 ± 1.7 L/h
CL/F, Median (range) [1, 15]: 7.8 (4.6–11.6) L/h
tmax, Median (range) [1, 15]: 1.00 (0.50–2.50) h
Cmax, Mean ± SD ([1]; plasma, Enzalutamide + cocktail (day 64), enzalutamide 160 mg once daily): 1.69 ± 0.384 ng/mL
increase in AUCinf (GLSM ratio) (P-gp [2]; [16]): 33%
increase in AUClast (GLSM ratio) (P-gp [2]; [16]): 29%
increase in Cmax (GLSM ratio) (P-gp [2]; [16]): 17%
AUCinf, GLSM ratio (95% CI) (P-gp [2]; [17]): 133.5 (125.3–142.2)
AUClast, GLSM ratio (95% CI) (P-gp [2]; [17]): 129.1 (121.0–137.7)
Cmax, GLSM ratio (95% CI) (P-gp [2]; digoxin plasma, enzalutamide + cocktail (day 64) vs cocktail (day 1)): 117.0 (105.8–129.3)
decrease in Aelast% (P-gp [2]; digoxin urine, co-administered with enzalutamide): 10%
Aelast%, GLSM ratio (95% CI) (P-gp [2]; digoxin urine, day 64 vs day 1): 89.6 (79.1–101.6)
decrease in CLR (P-gp [2]; digoxin, co-administered with enzalutamide): 22%
CL renal ([3]; Mean ± SD, Cocktail (day 1)): 105 mL/min
CL renal ([3]; Mean ± SD, Enzalutamide + cocktail (day 64)): 81.7 mL/min
CL renal ([3]; Median (range), Cocktail (day 1)): 100 mL/min
CL renal ([3]; Median (range), Enzalutamide + cocktail (day 64)): 78.3 mL/min
Aelast, Mean ± SD ([3]; Cocktail (day 1)): 0.05 ± 0.01 mg
Aelast, Mean ± SD [3, 18]: 0.05 ± 0.01 mg
Aelast%, GLSM ([3]; Cocktail (day 1)): 19.4%
Aelast%, Mean ± SD ([3]; Cocktail (day 1)): 20.1 ± 5.1%
Aelast%, Median (range) ([3]; Cocktail (day 1)): 21.3 (9.2–31.5) %
Aelast, Median (range) ([3]; Cocktail (day 1)): 0.05 (0.02–0.08) mg
Aelast%, GLSM [3, 18]: 17.3%
Aelast%, Mean ± SD [3, 18]: 18.2 ± 5.4%
Aelast%, Median (range) [3, 18]: 17.9 (6.6–26.5) %
Aelast, Median (range) [3, 18]: 0.04 (0.02–0.07) mg
SMILES: C[C@H]1O[C@@H](O[C@H]2[C@@H](O)C[C@H](O[C@H]3[C@@H](O)C[C@H](O[C@H]4CC[C@@]5(C)[C@H](CC[C@@H]6[C@@H]5C[C@@H](O)[C@]5(C)[C@@H](C7=CC(=O)OC7)CC[C@]65O)C4)O[C@@H]3C)O[C@@H]2C)C[C@H](O)[C@@H]1O [digoxin]
TEAEs considered related to the drug (Safety and tolerability): no TEAEs were considered to be related

SMILES: CNC(=O)c1ccc(N2C(=S)N(c3ccc(C#N)c(C(F)(F)F)c3)C(=O)C2(C)C)cc1F [enzalutamide]
AUC (clinical; oral): 333000 ± 57800 ng·h/mL
Cmax (clinical; oral): 17200 ng/mL
Cmax (clinical; po, 160 mg): 17100 ± 2800 ng/mL
inducer class (CYP2C9; CYP2C9): moderate inducer
reduction of exposure of probe substrate (CYP2C9; CYP2C9 probe substrate): 56%
Mean Ctrough ([4]; day 35): 14100 ng/mL
AUCtau, Median (range) ([4]; day 64): 344 (210–435) h·µg/ml
Ctrough, Mean ± SD ([4]; day 64): 13900 ng/mL
Ctrough, Median (range) ([4]; day 64): 14.1 (8.3–19.4) µg/ml
Ctrough, Mean ± SD ([4]; day 64, listed as Enzalutamide): 13900 ± 2900 ng/mL
Mean Ctrough ([4]; day 68): 14000 ng/mL
Mean Ctrough ([4]; day 71): 14000 ng/mL
effect of enzalutamide on the PK of rosuvastatin (class) (BCRP [5]; 90% CI for Cmax and AUCinf GLSM ratios within 80–125%): no effect
inducer class (CYP2C19; CYP2C19): moderate inducer
reduction of exposure of probe substrate (CYP2C19; CYP2C19 probe substrate): 70%
inducer class (CYP3A4 [6]; CYP3A4): strong inducer
reduction of exposure of probe substrate (CYP3A4 [6]; CYP3A4 probe substrate): 86%
effect of enzalutamide on P-gp inhibition (class) (P-gp [2]; GLSM ratios of digoxin less than two-fold, enzalutamide 160 mg once daily): mild
tolerability (Safety and tolerability; enzalutamide alone and in combination with digoxin and rosuvastatin): well tolerated
patients with decreased white blood cell count (TEAE) (Safety and tolerability; [19]): 8.3%
patients with dizziness (TEAE) (Safety and tolerability; [19]): 8.3%
patients with urinary tract infection (TEAE) (Safety and tolerability; [19]): 8.3%
patients with TEAEs considered potentially related to enzalutamide (Safety and tolerability; one eosinophilia, two decreased white blood cell count, three patients): 12.5%
deaths (Safety and tolerability; whole study): no deaths
serious TEAEs (Safety and tolerability; whole study): No serious TEAEs were reported
severity of all TEAEs (Safety and tolerability; whole study): mild
CYP3A4 mRNA induction, % of positive control (CYP3A4 [7]): 95.9%
increase of CYP3A4 enzyme activity (CYP3A4 [7]): up to 3.88 fold
increase of CYP3A4 mRNA levels (CYP3A4 [7]): ≤ 6.90 fold

increase in Cmax (GLSM ratio) (BCRP [5]; [20]): 6%
reduction in AUClast (GLSM ratio) (BCRP [5]; [20]): 14%
AUCinf, GLSM ratio (95% CI) (BCRP [5]; [21]): 89.3 (80.0–99.8)
AUClast, GLSM ratio (95% CI) (BCRP [5]; [21]): 86.1 (77.5–95.7)
Cmax, GLSM ratio (95% CI) (BCRP [5]; rosuvastatin plasma, enzalutamide + cocktail (day 64) vs cocktail (day 1)): 106.3 (94.7–119.3)
AUC(0-inf) ([1]; GLSM, plasma, Cocktail (day 1)): 62.7 ng·h/mL
AUC(0-inf) [1, 10]: 56 ng·h/mL
AUC(0-inf) [1, 11]: 69.5 ng·h/mL
AUC(0-inf) [1, 13]: 59.7 ng·h/mL
AUC(0-inf) [1, 12]: 68.6 ng·h/mL
AUC(0-inf) [1, 14]: 55.5 ng·h/mL
AUC(0-t) ([1]; GLSM, plasma, Cocktail (day 1)): 56.7 ng·h/mL
AUC(0-t) [1, 10]: 48.8 ng·h/mL
AUC(0-t) [1, 11]: 61.8 ng·h/mL
AUC(0-t) [1, 13]: 52.8 ng·h/mL
AUC(0-t) [1, 12]: 56.1 ng·h/mL
AUC(0-t) [1, 14]: 48.4 ng·h/mL
Cmax ([1]; GLSM, plasma, Cocktail (day 1)): 4.3 ng/mL
Cmax [1, 12]: 4.71 ng/mL
Cmax [1, 14]: 4.49 ng/mL
Vd/F [1, 11]: 5400 ± 3950 L
Vd/F [1, 13]: 5420 ± 3510 L
Vd/F [1, 12]: 4310 L
Vd/F [1, 14]: 3490 L
half-life [1, 11]: 22.5 ± 11.4 h
CL/F, Mean ± SD ([1]; plasma, Cocktail (day 1)): 163 ± 68.5 L/h
CL/F, Median (range) ([1]; plasma, Cocktail (day 1)): 146 (94.5–366) L/h
tmax, Median (range) ([1]; plasma, Cocktail (day 1)): 4.0 (1.0–6.0) h
CL/F, Mean ± SD [1, 15]: 186 ± 62.4 L/h
CL/F, Median (range) [1, 15]: 180 (91.6–314) L/h
tmax, Median (range) [1, 15]: 3.0 (0.5–6.0) h
SMILES: CC(C)c1nc(N(C)S(C)(=O)=O)nc(-c2ccc(F)cc2)c1/C=C/[C@@H](O)C[C@@H](O)CC(=O)O [rosuvastatin]
TEAEs considered related to the drug (Safety and tolerability): no TEAEs were considered to be related

SMILES: CO[C@H]1/C=C/O[C@@]2(C)Oc3c(C)c(O)c4c(O)c(c(/C=N/N5CCN(C)CC5)c(O)c4c3C2=O)NC(=O)/C(C)=C\C=C\[C@H](C)[C@H](O)[C@@H](C)[C@@H](O)[C@@H](C)[C@H](OC(C)=O)[C@@H]1C [rifampin]
decrease of AUC of digoxin (P-gp [8]): 30%
decrease of Cmax of digoxin (P-gp [8]): 58%
decrease in Cmax of rosuvastatin (BCRP [9]): 30%

SMILES: CC1(C)C(=O)N(c2ccc(C#N)c(C(F)(F)F)c2)C(=S)N1c1ccc(C(N)=O)c(F)c1 [N‐desmethyl enzalutamide]
Mean Ctrough ([4]; day 35): 9100 ng/mL
AUCtau, Mean ± SD ([4]; day 64): 259000 ± 37900 ng·h/mL
AUCtau, Median (range) ([4]; day 64): 251 (189–327) h·µg/ml
Cmax, Median (range) ([4]; day 64): 12.1 (8.9–15.3) µg/ml
Ctrough, Mean ± SD ([4]; day 64): 11600 ng/mL and 11600 ± 1900 ng/mL
Ctrough, Median (range) ([4]; day 64): 11.7 (7.7–15.0) µg/ml
Cmax, Mean ± SD ([4]; day 64, enzalutamide 160 mg oral once daily from day 8): 12300 ± 1700 ng/mL
Mean Ctrough ([4]; day 68): 11900 ng/mL
Mean Ctrough ([4]; day 71): 12100 ng/mL
